Reference: US20260231994A1, “TASTE-ENHANCING COMPOSITION, METHOD FOR PRODUCING SAME, FOOD PRODUCT, AND METHOD FOR ENHANCING TASTE OF FOOD PRODUCT” (HOUSE FOODS GROUP INC., priority 2023, published 2026)

How the values were obtained:
Type in all cases: in vivo
[1] = Experiment 6 sensory evaluation of cyclic dipeptides, “boosting of last flavor (aftertaste)”
Procedure: (§1) An aqueous solution in which the concentration of each of the cyclic dipeptides shown in the table described below is set to be the same as its concentration in the heat-treated coriander prepared in 1.1. described above, as estimated from the ratio of the peak area of the cyclic dipeptides to the peak area of the internal standard (47 μg/g of L-lysine-^13C6 monohydrochloride) (hereinafter referred to as “heat-treated coriander equivalent aqueous solution”) was prepared. An aqueous solution in which the concentration of each of the cyclic dipeptides is set to be the same as its concentration in the heat-treated paprika of Example 203 prepared in 2.1 described above (hereinafter referred to as “heat-treated paprika equivalent aqueous solution”) was also prepared. Cyclic dipeptides prepared by the applicant were used in this experiment. As a cyclic dipeptide comprising Leu/Ile, a mixture comprising equal parts of cyclic dipeptide comprising Leu and cyclic dipeptide comprising Ile was used.
(§2) Common and reduced-sodium curry rouxes were prepared according to the procedures described in (1) and (2) of 1.3. described above.
(§3) Two dispersions of 44 g of the aforesaid reduced-sodium curry roux dispersed in 300 g of hot water were prepared. To one of them was added the heat-treated coriander equivalent solution or heat-treated paprika equivalent aqueous solution of the individual cyclic dipeptides shown in the table described below so as to be in the final concentration of 0.5% (w/w) or 1.0% (w/w), respectively.
(§4) Forty-four grams of the aforesaid common curry roux was dispersed in 300 g of hot water.
(§5) The dispersion of reduced-sodium curry roux dispersed in hot water and the dispersion of common curry roux dispersed in hot water were used as comparative controls, and the strength of the flavor was evaluated by three evaluators on the basis of the following evaluation criteria from the viewpoint of “top sharp saltiness”, “middle fullness (enhanced thickness) and “boosting of last flavor (aftertaste).”
(§6) The average of the evaluated scores was defined as “F” when it was 1.0 or lower, “C” when it was 1.1 or higher and 1.9 or lower, “B” when it was 2.0 or higher and 2.5 or lower, “A” when it was 2.6 or higher and 2.9 or lower, and “AA” when it was 3.0 or higher.
(§7) In the table described below, “ID” refers to the compound ID described above. The items of “coriander 0.5%” and “coriander 1.0%” refer to the addition of the aforesaid heat-treated coriander equivalent aqueous solution of cyclic dipeptide so that the final concentrations may be 0.5% (w/w) and 1.0% (w/w), respectively. The items of “paprika 0.5%” and “paprika 1.0%” refer to the addition of the aforesaid heat-treated paprika equivalent aqueous solution of cyclic dipeptide so that the final concentration may be 0.5% (w/w) and 1.0% (w/w), respectively.

[2] = Experiment 6 sensory evaluation of cyclic dipeptides, “top sharp saltiness”
Procedure: as §1, §2, §3, §4, §5, §6, §7

[3] = Experiment 6 sensory evaluation of cyclic dipeptides, “middle fullness (enhanced thickness)”
Procedure: as §1, §2, §3, §4, §5, §6, §7

[4] = Additive amount coriander 0.5%, reduced-sodium curry roux
[5] = heat-treated coriander equivalent aqueous solution of cyclic dipeptide, final 1.0% (w/w) in reduced-sodium curry roux dispersion
[6] = heat-treated coriander equivalent aqueous solution of cyclic dipeptide, final 1.0% (w/w) in reduced-sodium curry roux dispersion, 3 evaluators
[7] = Additive amount coriander 0.5% (heat-treated coriander equivalent aqueous solution, final 0.5% (w/w)), reduced-sodium curry roux
[8] = Additive amount paprika 0.5%, reduced-sodium curry roux
[9] = heat-treated paprika equivalent aqueous solution of cyclic dipeptide, final 1.0% (w/w) in reduced-sodium curry roux dispersion
[10] = heat-treated paprika equivalent aqueous solution of cyclic dipeptide, final 1.0% (w/w) in reduced-sodium curry roux dispersion, 3 evaluators
[11] = Additive amount paprika 0.5% (heat-treated paprika equivalent aqueous solution, final 0.5% (w/w)), reduced-sodium curry roux

| Substance | Bosting of last flavor Average [1, 4] [points] | Bosting of last flavor Evaluation [1, 4] | Bosting of last flavor Evaluation [1, 5] | Bosting of last flavor Average [1, 6] [points] | Top sharp saltiness Average [2, 7] [points] | Top sharp saltiness Evaluation [2, 4] | Top sharp saltiness Evaluation [2, 5] | Top sharp saltiness Average [2, 6] [points] | Middle fullness Average [3, 4] [points] | Middle fullness Evaluation [3, 4] | Middle fullness Evaluation [3, 5] | Middle fullness Average [3, 6] [points] | Bosting of last flavor Average [1, 8] [points] | Bosting of last flavor Evaluation [1, 8] | Bosting of last flavor Evaluation [1, 9] | Bosting of last flavor Average [1, 10] [points] | Top sharp saltiness Average [2, 11] [points] | Top sharp saltiness Evaluation [2, 8] | Top sharp saltiness Evaluation [2, 9] | Top sharp saltiness Average [2, 10] [points] | also measured |
| --- | --- | --- | --- | --- | --- | --- | --- | --- | --- | --- | --- | --- | --- | --- | --- | --- | --- | --- | --- | --- | --- |
| cyclic (Glu-His) [Coriander ID 6] | 3.0 | AA (“AA” when it was 3.0 or higher) | AA (“AA” when it was 3.0 or higher) | 3.7 | 3.2 | AA (“AA” when it was 3.0 or higher) | AA (“AA” when it was 3.0 or higher) | 4.0 | 3.3 | AA (“AA” when it was 3.0 or higher) | AA (“AA” when it was 3.0 or higher) | 3.8 |  |  |  |  |  |  |  |  |  |
| cyclic (Gly-His) [Coriander ID 4] | 3.5 | AA (“AA” when it was 3.0 or higher) | B (“B” when it was 2.0 or higher and 2.5 or lower) | 2.5 | 2.8 | A (“A” when it was 2.6 or higher and 2.9 or lower) | B (“B” when it was 2.0 or higher and 2.5 or lower) | 2.3 | 3.3 | AA (“AA” when it was 3.0 or higher) | A (“A” when it was 2.6 or higher and 2.9 or lower) | 2.7 |  |  |  |  |  |  |  |  |  |
| cyclic (Pro-Pro) [Coriander ID 18] | 2.3 | B (“B” when it was 2.0 or higher and 2.5 or lower) | B (“B” when it was 2.0 or higher and 2.5 or lower) | 2.5 | 2.2 | B (“B” when it was 2.0 or higher and 2.5 or lower) | B (“B” when it was 2.0 or higher and 2.5 or lower) | 2.3 | 2.5 | B (“B” when it was 2.0 or higher and 2.5 or lower) | A (“A” when it was 2.6 or higher and 2.9 or lower) | 2.7 |  |  |  |  |  |  |  |  |  |
| cyclic (Val-Ser) [Coriander ID 59] |  |  |  |  |  |  |  |  |  |  |  |  | 2.7 | A (“A” when it was 2.6 or higher and 2.9 or lower) | A (“A” when it was 2.6 or higher and 2.9 or lower) | 2.8 | 2.5 | B (“B” when it was 2.0 or higher and 2.5 or lower) | C (“C” when it was 1.1 or higher and 1.9 or lower) | 1.8 | Middle fullness Average [3, 8]: 2.7 points; Middle fullness Evaluation [3, 8]: A (“A” when it was 2.6 or higher and 2.9 or lower); Middle fullness Evaluation [3, 9]: B (“B” when it was 2.0 or higher and 2.5 or lower); Middle fullness Average [3, 10]: 2.2 points |
| cyclic (Arg-Leu/Ile) [Coriander ID 22] | 2.7 | A (“A” when it was 2.6 or higher and 2.9 or lower) | A (“A” when it was 2.6 or higher and 2.9 or lower) | 2.8 | 2.6 | A (“A” when it was 2.6 or higher and 2.9 or lower) | B (“B” when it was 2.0 or higher and 2.5 or lower) | 2.0 | 2.6 | A (“A” when it was 2.6 or higher and 2.9 or lower) | B (“B” when it was 2.0 or higher and 2.5 or lower) | 2.5 |  |  |  |  |  |  |  |  |  |
| cyclic (Gly-Arg) [Coriander ID 7] | 3.0 | AA (“AA” when it was 3.0 or higher) | C (“C” when it was 1.1 or higher and 1.9 or lower) | 1.5 | 2.5 | B (“B” when it was 2.0 or higher and 2.5 or lower) | C (“C” when it was 1.1 or higher and 1.9 or lower) | 1.3 | 3.2 | AA (“AA” when it was 3.0 or higher) | C (“C” when it was 1.1 or higher and 1.9 or lower) | 1.7 |  |  |  |  |  |  |  |  |  |
| cyclic (Val-Arg) [Coriander ID 20] | 3.7 | AA (“AA” when it was 3.0 or higher) | B (“B” when it was 2.0 or higher and 2.5 or lower) | 2.2 | 2.7 | A (“A” when it was 2.6 or higher and 2.9 or lower) | C (“C” when it was 1.1 or higher and 1.9 or lower) | 1.7 | 3.3 | AA (“AA” when it was 3.0 or higher) | B (“B” when it was 2.0 or higher and 2.5 or lower) | 2.0 |  |  |  |  |  |  |  |  |  |
| cyclic (Glu-Arg) [Coriander ID 8] |  |  |  |  |  |  |  |  |  |  |  |  | 2.7 | A (“A” when it was 2.6 or higher and 2.9 or lower) | B (“B” when it was 2.0 or higher and 2.5 or lower) | 2.3 | 1.8 | C (“C” when it was 1.1 or higher and 1.9 or lower) | B (“B” when it was 2.0 or higher and 2.5 or lower) | 2.2 | Middle fullness Average [3, 8]: 2.2 points; Middle fullness Evaluation [3, 8]: B (“B” when it was 2.0 or higher and 2.5 or lower); Middle fullness Evaluation [3, 9]: B (“B” when it was 2.0 or higher and 2.5 or lower); Middle fullness Average [3, 10]: 2.5 points |
| cyclic (Leu/Ile-His) [Coriander ID 52] | 2.8 | A (“A” when it was 2.6 or higher and 2.9 or lower) | AA (“AA” when it was 3.0 or higher) | 3.0 | 3.3 | AA (“AA” when it was 3.0 or higher) | B (“B” when it was 2.0 or higher and 2.5 or lower) | 2.3 | 3.2 | AA (“AA” when it was 3.0 or higher) | A (“A” when it was 2.6 or higher and 2.9 or lower) | 2.7 |  |  |  |  |  |  |  |  |  |
| cyclic (Thr-Leu/Ile) [Coriander ID 3] |  |  |  |  |  |  |  |  |  |  |  |  | 3.0 | AA (“AA” when it was 3.0 or higher) | C (“C” when it was 1.1 or higher and 1.9 or lower) | 1.7 | 2.0 | B (“B” when it was 2.0 or higher and 2.5 or lower) | C (“C” when it was 1.1 or higher and 1.9 or lower) | 1.7 | Middle fullness Average [3, 8]: 2.5 points; Middle fullness Evaluation [3, 8]: B (“B” when it was 2.0 or higher and 2.5 or lower); Middle fullness Evaluation [3, 9]: B (“B” when it was 2.0 or higher and 2.5 or lower); Middle fullness Average [3, 10]: 2.2 points |
